Consider six compounds from ChEMBL document CHEMBL5257037, “Side Chain Cyclized Aromatic Amino Acids: Great Tools as Local Constraints in Peptide and Peptidomimetic Design” (J Med Chem, 2016).

One assay addresses T1, B2 bradykinin receptor (Homo sapiens) (UniProt P30411).
T1 sequence (whole entry): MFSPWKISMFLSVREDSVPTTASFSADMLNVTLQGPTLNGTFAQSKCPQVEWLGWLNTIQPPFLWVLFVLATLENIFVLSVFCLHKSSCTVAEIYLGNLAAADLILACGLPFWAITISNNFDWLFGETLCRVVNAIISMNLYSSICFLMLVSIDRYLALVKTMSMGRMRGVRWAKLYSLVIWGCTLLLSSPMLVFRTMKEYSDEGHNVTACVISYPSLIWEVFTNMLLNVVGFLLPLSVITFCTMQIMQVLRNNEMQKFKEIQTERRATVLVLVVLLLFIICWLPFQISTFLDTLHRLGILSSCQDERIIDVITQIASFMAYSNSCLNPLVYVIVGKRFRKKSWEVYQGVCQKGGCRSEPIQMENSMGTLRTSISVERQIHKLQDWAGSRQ
In words: Inhibition of B2 bradykinin receptor (unknown origin) at 10 mM relative to control.
`C[C@@H](C(=O)N[C@@H](CCCNC(=N)N)C(=O)O)N1Cc2ccccc2C[C@@H](NC(=O)[C@H](CO)NC(=O)[C@H](Cc2ccccc2)NC(=O)CNC(=O)[C@@H]2CCCN2C(=O)[C@@H]2CCCN2C(=O)[C@@H](N)CCCNC(=N)N)C1=O` showed an inhibition of 54%.

For another assay, the target named is T2, Angiotensin-converting enzyme (Rattus norvegicus) (UniProt P47820).
T2 sequence (whole entry): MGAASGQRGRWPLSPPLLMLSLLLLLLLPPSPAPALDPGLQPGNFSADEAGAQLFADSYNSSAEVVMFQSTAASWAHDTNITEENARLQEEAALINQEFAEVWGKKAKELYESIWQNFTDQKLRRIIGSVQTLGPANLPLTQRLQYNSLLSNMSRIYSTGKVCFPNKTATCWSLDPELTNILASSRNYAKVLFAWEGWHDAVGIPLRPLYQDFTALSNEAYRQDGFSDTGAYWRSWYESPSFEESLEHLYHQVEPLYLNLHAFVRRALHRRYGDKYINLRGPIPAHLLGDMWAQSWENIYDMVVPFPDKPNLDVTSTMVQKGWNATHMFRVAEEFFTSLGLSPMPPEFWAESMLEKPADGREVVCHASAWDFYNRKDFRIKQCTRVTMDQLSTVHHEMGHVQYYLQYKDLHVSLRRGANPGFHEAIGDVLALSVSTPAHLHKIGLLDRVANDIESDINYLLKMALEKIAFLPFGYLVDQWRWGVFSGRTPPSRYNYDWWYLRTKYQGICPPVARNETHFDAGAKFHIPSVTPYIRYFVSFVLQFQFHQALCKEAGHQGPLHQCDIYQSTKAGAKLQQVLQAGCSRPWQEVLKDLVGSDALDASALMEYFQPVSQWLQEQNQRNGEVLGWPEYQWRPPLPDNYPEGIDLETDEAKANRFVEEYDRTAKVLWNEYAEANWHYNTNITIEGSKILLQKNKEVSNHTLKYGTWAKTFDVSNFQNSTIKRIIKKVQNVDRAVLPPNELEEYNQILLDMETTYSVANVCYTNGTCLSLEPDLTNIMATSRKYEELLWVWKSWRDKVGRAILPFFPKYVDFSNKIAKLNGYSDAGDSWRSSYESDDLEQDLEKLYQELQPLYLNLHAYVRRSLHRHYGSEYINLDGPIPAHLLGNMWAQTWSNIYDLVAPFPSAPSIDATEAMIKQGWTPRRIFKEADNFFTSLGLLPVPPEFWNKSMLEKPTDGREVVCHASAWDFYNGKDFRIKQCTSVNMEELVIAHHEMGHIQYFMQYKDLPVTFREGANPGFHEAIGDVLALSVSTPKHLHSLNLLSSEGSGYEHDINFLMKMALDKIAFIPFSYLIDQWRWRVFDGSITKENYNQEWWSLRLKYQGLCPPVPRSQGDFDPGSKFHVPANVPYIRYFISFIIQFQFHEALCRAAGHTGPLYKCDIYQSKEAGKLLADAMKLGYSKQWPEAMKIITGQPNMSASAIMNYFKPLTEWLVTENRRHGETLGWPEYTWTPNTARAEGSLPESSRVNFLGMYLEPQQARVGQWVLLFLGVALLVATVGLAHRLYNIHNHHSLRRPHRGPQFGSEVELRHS
In words: In vivo inhibition of ACE in iv dosed rat assessed as inhibition of Ang1 induced pressor response. Type of assay: functional, organism-based.
On to `C[C@H](NC(=O)[C@@H](CS)Cc1ccccc1)C(=O)N1c2ccccc2C[C@H]1C(=O)O`, for which the ED50 amounted to 0.15 µmol/kg. `O=C(O)CN1C(=O)[C@@H](NC(=O)[C@@H](S)Cc2ccccc2)CCc2ccccc21`: the ED50 amounted to 0.02 µmol/kg. Regarding `C[C@H](NC(=O)[C@@H](S)Cc1ccccc1)C(=O)N1CCC[C@H]1C(=O)O`, the median effective dose (ED50) was 0.06 µmol/kg. On the same count and under the same terms, the figure for `C[C@H](NC(=O)[C@@H](CS)Cc1ccccc1)C(=O)N1CCC[C@H]1C(=O)O` is 0.5 µmol/kg; for `C[C@H](NC(=O)[C@@H](CS)Cc1ccccc1)C(=O)N1Cc2ccccc2C[C@H]1C(=O)O` it is 0.57 µmol/kg.
